Laboratory results reported in PubChem BioAssay AID248 (DTP/NCI, 2004).
Where “and” joins values, the source holds several entries; their conditions need not be identical. Identical values can stand only once. Toxic doses and inconclusive results are not listed. Cut-off read from the data, not from the text of the source: active = T/C of 150% or more; inactive = T/C below 125%.

Tested on: L1210 leukemia ip in BDF1 mice, survival T/C
Assay: NCI In Vivo Anticancer Drug Screen. Data for tumor model L1210 Leukemia (intraperitoneal) in B6D2F1 (BDF1) mice
Details: endpoint: mean survival time, higher = longer survival
How it was run: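 Tumor cells were implanted, animals were treated, and survival was followed. The result divides the treated measurement by the vehicle-control measurement.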

[1] = dose: 100.0 mg/kg/injection, schedule: Q01DX009 (ip), vehicle: Klucel (hydroxypropylcellulose) (HPC)
[2] = dose: 100.0 mg/kg/injection, schedule: Q04DX002 (ip), vehicle: Klucel (hydroxypropylcellulose) (HPC)
[3] = dose: 100.0 mg/kg/injection, schedule: Q04DX002 (ip), vehicle: saline with Tween-80
[4] = dose: 200.0 mg/kg/injection, schedule: Q01DX009 (ip), vehicle: Klucel (hydroxypropylcellulose) (HPC)
[5] = dose: 200.0 mg/kg/injection, schedule: Q04DX002 (ip), vehicle: Klucel (hydroxypropylcellulose) (HPC)
[6] = dose: 200.0 mg/kg/injection, schedule: Q04DX002 (ip), vehicle: saline with Tween-80
[7] = dose: 400.0 mg/kg/injection, schedule: Q01DX009 (ip), vehicle: Klucel (hydroxypropylcellulose) (HPC)
[8] = dose: 400.0 mg/kg/injection, schedule: Q04DX002 (ip), vehicle: Klucel (hydroxypropylcellulose) (HPC)
[9] = dose: 400.0 mg/kg/injection, schedule: Q04DX002 (ip), vehicle: saline with Tween-80
[10] = dose: 100.0 mg/kg/injection, schedule: Q04DX002 (ip), vehicle: saline
[11] = dose: 100.0 mg/kg/injection, schedule: Q01DX009 (ip), vehicle: saline with Tween-80
[12] = dose: 200.0 mg/kg/injection, schedule: Q01DX009 (ip), vehicle: saline with Tween-80
[13] = dose: 400.0 mg/kg/injection, schedule: Q01DX009 (ip), vehicle: saline with Tween-80
[14] = dose: 100.0 mg/kg/injection, schedule: Q04DX003 (ip), vehicle: saline
[15] = dose: 200.0 mg/kg/injection, schedule: Q04DX003 (ip), vehicle: saline
[16] = dose: 400.0 mg/kg/injection, schedule: Q04DX003 (ip), vehicle: saline
[17] = dose: 100.0 mg/kg/injection, schedule: Q04DX003 (ip), vehicle: saline with Tween-80
[18] = dose: 200.0 mg/kg/injection, schedule: Q04DX003 (ip), vehicle: saline with Tween-80
[19] = dose: 400.0 mg/kg/injection, schedule: Q04DX003 (ip), vehicle: saline with Tween-80
[20] = dose: 100.0 mg/kg/injection, schedule: Q01DX001 (ip), vehicle: carboxymethylcellulose (CMC)
[21] = dose: 200.0 mg/kg/injection, schedule: Q01DX001 (ip), vehicle: carboxymethylcellulose (CMC)
[22] = dose: 400.0 mg/kg/injection, schedule: Q01DX001 (ip), vehicle: carboxymethylcellulose (CMC)
[23] = dose: 100.0 mg/kg/injection, schedule: Q01DX001 (ip), vehicle: saline
[24] = dose: 200.0 mg/kg/injection, schedule: Q01DX001 (ip), vehicle: saline
[25] = dose: 400.0 mg/kg/injection, schedule: Q01DX001 (ip), vehicle: saline
[26] = dose: 100.0 mg/kg/injection, schedule: Q04DX003 (ip), vehicle: Klucel (hydroxypropylcellulose) (HPC)
[27] = dose: 200.0 mg/kg/injection, schedule: Q04DX003 (ip), vehicle: Klucel (hydroxypropylcellulose) (HPC)
[28] = dose: 400.0 mg/kg/injection, schedule: Q04DX003 (ip), vehicle: Klucel (hydroxypropylcellulose) (HPC)

Measured: T/C

O=C(O)CCC(=O)c1ccccc1
inactive: dose: 50.0 mg/kg/injection, schedule: Q01DX009 (ip), vehicle: saline 97 % of control | [1] 100 % of control | dose: 100.0 mg/kg/injection, schedule: Q01DX009 (ip), vehicle: saline 97 % of control | [2] 97 % of control | [3] 108 % of control | [4] 96 % of control | dose: 200.0 mg/kg/injection, schedule: Q01DX009 (ip), vehicle: saline 105 % of control | [5] 91 % of control | [6] 105 % of control | [7] 107 % of control | [8] 87 % of control | [9] 105 % of control

CCCC#CC(=O)OCCCCCC
inactive: [10] 96 % of control | dose: 200.0 mg/kg/injection, schedule: Q04DX002 (ip), vehicle: saline 111 % of control | dose: 400.0 mg/kg/injection, schedule: Q04DX002 (ip), vehicle: saline 103 % of control

CCOC(=O)C(CCC(C)C)C(C)=O (stereo not given)
inactive: [11] 97 % of control | [3] 101 % of control | [12] 112 % of control | [6] 97 % of control | [13] 104 % of control | [9] 101 % of control

CCOc1ccc2c(ccc(C)[n+]2C)c1
inactive: dose: 75.0 mg/kg/injection, schedule: Q01DX001 (ip), vehicle: carboxymethylcellulose (CMC) 108 % of control | dose: 150.0 mg/kg/injection, schedule: Q01DX001 (ip), vehicle: carboxymethylcellulose (CMC) 109 % of control

O=[N+]([O-])c1cccc(C=Nc2cccc3ccccc23)c1
inactive: [1] 96 % of control | [4] 98 % of control | [7] 88 % of control

CNc1ccc(C(=O)NC(CCC(=O)O)C(=O)O)cc1[N+](=O)[O-] (stereo not given)
inactive: [14] 105 % of control | [15] 94 % of control | [16] 103 % of control

Cc1ccc([Si](C)(C)C)cc1
inactive: dose: 25.6 mg/kg/injection, schedule: Q04DX002 (ip), vehicle: saline with Tween-80 90 % of control | dose: 64.0 mg/kg/injection, schedule: Q04DX002 (ip), vehicle: saline with Tween-80 104 % of control | dose: 160.0 mg/kg/injection, schedule: Q04DX002 (ip), vehicle: saline with Tween-80 90 % of control | [9] 90 % of control

O=C(NO)N/N=C/c1ccc(/C=N/NC(=O)NO)cc1
inactive: dose: 100.0 mg/kg/injection, schedule: Q01DX001 (ip), vehicle: other 100 % of control | [11] 101 % of control | dose: 100.0 mg/kg/injection, schedule: Q04DX003 (ip), vehicle: other 104 % of control | dose: 200.0 mg/kg/injection, schedule: Q01DX001 (ip), vehicle: other 100 % of control | [12] 95 % of control | dose: 200.0 mg/kg/injection, schedule: Q04DX003 (ip), vehicle: other 95 % of control | dose: 400.0 mg/kg/injection, schedule: Q01DX001 (ip), vehicle: other 102 % of control | [13] 101 % of control | dose: 400.0 mg/kg/injection, schedule: Q04DX003 (ip), vehicle: other 96 % of control

C/C(CSc1ncnc2nc[nH]c12)=N\NC(N)=S
inactive: dose: 50.0 mg/kg/injection, schedule: Q04DX003 (ip), vehicle: saline with Tween-80 101 % of control | [17] 95 % of control and 102 % of control | [18] 93 % of control | [19] 104 % of control

Cc1ccc(C)c(Cc2c(C=O)[nH]c(=S)[nH]c2=O)c1
inactive: [17] 97 % of control | [18] 101 % of control | [19] 110 % of control

CC(C)CC(N)C(=O)O (stereo not given)
inactive: [20] 87 % of control | [21] 91 % of control | [22] 91 % of control

COC1OC(COC(=O)c2ccc([N+](=O)[O-])cc2)C2OC12 (stereo not given)
inactive: [20] 100 % of control | [23] 101 % of control | [21] 95 % of control | [24] 101 % of control and 109 % of control | [22] 89 % of control | [25] 101 % of control

NN1CC(=O)NC1=O
inactive: [14] 100 % of control | [15] 102 % of control | [16] 100 % of control

O=C(COCC(=O)N/N=C/c1ccccc1O)N/N=C/c1ccccc1O
inactive: dose: 100.0 mg/kg/injection, schedule: Q01DX001 (ip), vehicle: Klucel (hydroxypropylcellulose) (HPC) 93 % of control | [1] 98 % of control and 103 % of control | [2] 109 % of control | [26] 110 % of control | dose: 200.0 mg/kg/injection, schedule: Q01DX001 (ip), vehicle: Klucel (hydroxypropylcellulose) (HPC) 92 % of control | [4] 94 % of control and 98 % of control | [5] 91 % of control | [27] 108 % of control | dose: 400.0 mg/kg/injection, schedule: Q01DX001 (ip), vehicle: Klucel (hydroxypropylcellulose) (HPC) 91 % of control | [7] 95 % of control and 87 % of control | [8] 100 % of control | [28] 105 % of control

CC(=O)[O][Sn]([CH2]c1ccccc1)([CH2]c1ccccc1)[CH2]c1ccccc1
inactive: dose: 0.5 mg/kg/injection, schedule: Q04DX003 (ip), vehicle: saline with Tween-80 97 % of control | dose: 1.0 mg/kg/injection, schedule: Q04DX003 (ip), vehicle: saline with Tween-80 96 % of control | dose: 3.0 mg/kg/injection, schedule: Q04DX003 (ip), vehicle: saline with Tween-80 99 % of control | dose: 12.0 mg/kg/injection, schedule: Q01DX009 (ip), vehicle: saline with Tween-80 97 % of control | dose: 25.0 mg/kg/injection, schedule: Q01DX009 (ip), vehicle: saline with Tween-80 100 % of control

Cc1cccc(N/N=C2\CCSc3ccccc32)c1
inactive: [26] 95 % of control | [27] 98 % of control | [28] 104 % of control

O=C(Nc1ccc(C2=NCCO2)cc1)c1ccc(C(=O)Nc2ccc(C3=NCCO3)cc2)cc1
inactive: dose: 15.0 mg/kg/injection, schedule: Q01DX Z (ip), vehicle: carboxymethylcellulose (CMC) 105 % of control | dose: 30.0 mg/kg/injection, schedule: Q01DX Z (ip), vehicle: carboxymethylcellulose (CMC) 96 % of control | dose: 60.0 mg/kg/injection, schedule: Q01DX Z (ip), vehicle: carboxymethylcellulose (CMC) 91 % of control | dose: 120.0 mg/kg/injection, schedule: Q01DX Z (ip), vehicle: carboxymethylcellulose (CMC) 96 % of control

O=C(CCl)Nc1cc(Cl)c(Cl)cc1Cl
inactive: [17] 97 % of control | [18] 97 % of control | [19] 106 % of control

[Cl][Sn]([c]1cccc2ccccc12)([c]1cccc2ccccc12)[c]1cccc2ccccc12
inactive: [3] 98 % of control | [6] 102 % of control | [9] 87 % of control

O=C(N/N=C/c1cccc([N+](=O)[O-])c1)c1ccc(O)cc1
inactive: [2] 102 % of control | [5] 105 % of control

CNNC(=O)c1ccccc1
inactive: dose: 6.25 mg/kg/injection, schedule: Q04DX002 (ip), vehicle: saline 119 % of control | dose: 12.5 mg/kg/injection, schedule: Q04DX002 (ip), vehicle: saline 97 % of control | dose: 25.0 mg/kg/injection, schedule: Q04DX002 (ip), vehicle: saline 97 % of control | dose: 50.0 mg/kg/injection, schedule: Q04DX002 (ip), vehicle: saline 94 % of control and 97 % of control | [10] 98 % of control

Cc1ccc(S(=O)(=O)N(c2ccccc2-c2ccccc2)C(C)C(=O)O)cc1 (stereo not given)
inactive: [23] 98 % of control | [24] 103 % of control | [25] 102 % of control

COc1cc(C=Nc2ccc(-c3csc(-c4ccccc4)n3)c(Cl)c2)ccc1N(CCCl)CCCl
active: dose: 20.0 mg/kg/injection, schedule: Q01DX009 (ip), vehicle: carboxymethylcellulose (CMC) 158 % of control | [20] 166 % of control
inactive: dose: 13.3 mg/kg/injection, schedule: Q01DX001 (ip), vehicle: carboxymethylcellulose (CMC) 122 % of control | [21] 95 % of control
